Assay results reported in ChEMBL document CHEMBL4038295, “Calofolic acids A-F, chromanones from the bark of Calophyllum scriblitifolium with vasorelaxation activity” (Bioorg Med Chem Lett, 2017).

Each compound was assayed on Thoracic aorta (assay: Vasorelaxing effect in endothelium-intact Wistar rat thoracic aorta ring assessed as inhibition of phenylephrine-stimulated contraction).
Assay type: functional, tissue-based

Structure (SMILES)	IC50 [µM]	inhibition
CCC[C@H](CC(=O)O)c1c2c(c(O)c3c1O[C@H](C)[C@H](C)C3=O)C=CC(C)(C)O2	18.9	Dose-dependent effect
CCC[C@H](CC(=O)O)c1c2c(c(O)c3c1O[C@H](C)[C@@H](C)C3=O)C=CC(C)(C)O2	13.8	Dose-dependent effect
CC[C@H](CC(=O)O)c1c2c(c(O)c3c1O[C@H](C)[C@@H](C)C3=O)C=CC(C)(C)O2	10.4	Dose-dependent effect
CCCC[C@H](CC(=O)O)c1c2c(c(O)c3c1O[C@H](C)[C@H](C)C3=O)C=CC(C)(C)O2	12.1	Dose-dependent effect
C[C@H](CC(=O)O)c1c2c(c(O)c3c1O[C@H](C)[C@H](C)C3=O)C=CC(C)(C)O2	10.3	Dose-dependent effect
CC[C@H](CC(=O)O)c1c2c(c(O)c3c1O[C@H](C)[C@H](C)C3=O)C=CC(C)(C)O2	6.07	Dose-dependent effect
